Measured values published in patent US11419855B2, “Pharmaceutical preparation” (KOWA COMPANY, LTD., priority 2017, dated 2022).

Key:
[1] = Hygroscopic property evaluation of pemafibrate crystal (Karl Fischer moisture content); assay type: physicochemical
Experimental: A pemafibrate crystal was produced by recrystallizing pemafibrate from an ethyl acetate/heptane mixture in accordance with the method for producing a pemafibrate crystal as described in Non-Patent Document 1.
250 mg of the pemafibrate crystal was placed in a dish, and stored in an uncapped state (open state) in a dark place at 25° C. and 83% relative humidity (RH) for 3 months. The hygroscopic property was evaluated by measuring the moisture contents before and after the storage. The measurement of the moisture content was performed by a coulometric titration method in accordance with The Japanese Pharmacopoeia, 17th Edition, Moisture Content Measurement Method (Karl Fischer Method).

[2] = Examination of stability of pemafibrate, stored alone in open state in dish (HPLC related substances); assay type: physicochemical
Experimental: 250 mg of pemafibrate was placed in a dish, and stored in an uncapped state (open state) in a dark place at 40° C. and 75% relative humidity (RH) for 3 months.
The amounts of pemafibrate-derived decomposition products (related substances) before the start of storage and after storage at 40° C. and 75% RH for 3 months were evaluated through the following method.
The sum of related substance-derived peak areas was evaluated in terms of a ratio (%) to the pemafibrate-derived peak area using an HPLC apparatus, and the ratio was defined as the “Total amount (%) of related substances”.

Moisture content (%), before storage ([1]; before storage, Karl Fischer coulometric titration) [%]	Moisture content (%), after storage at 25° C. and 83% RH for 3 months ([1]; open state in dish, dark place, 25° C., 83% RH, 3 months) [%]	Hygroscopic property ([1]; storage at 83% RH for 3 months, in words)	Stability at high humidity ([2]; 75% RH, storage for 3 months, in words)	Total amount (%) of related substances, before storage ([2]; before storage, HPLC ratio of related substance peak areas to pemafibrate peak area) [%]	Total amount (%) of related substances, after storage at 40° C. and 75% RH for 3 months ([2]; open state in dish, dark place, 40° C., 75% RH, 3 months) [%]	Structure (SMILES)
<0.1	<0.1	not hygroscopic				CC[C@@H](Oc1cccc(CN(CCCOc2ccc(OC)cc2)c2nc3ccccc3o2)c1)C(=O)O [Pemafibrate crystal, (2R)-2-[3-([1,3-Benzoxazol-2-yl[3-(4-methoxyphenoxy)propyl]amino]methyl)phenoxy]butanoic acid]
			stable	<0.05	<0.05	CC[C@@H](Oc1cccc(CN(CCCOc2ccc(OC)cc2)c2nc3ccccc3o2)c1)C(=O)O [Pemafibrate, (2R)-2-[3-([1,3-Benzoxazol-2-yl[3-(4-methoxyphenoxy)propyl]amino]methyl)phenoxy]butanoic acid]
